Test results published in patent US20240374601A1, “METHODS AND COMPOSITIONS FOR TREATING CANCER” (Onconova Therapeutics, Inc., priority 2021, published 2024).

Assays:
[1] = test system: prostate cancer cells; assay: Growth of cancer cell lines resistant to Comparator-1; format: cell-based; details: prostate cancer cells resistant to Comparator-1
[2] = Myelosuppression and neutropenia in preclinical models; details: in comparison to Comparator-1
[3] = test system: breast cancer cells; assay: Growth of cancer cell lines resistant to Comparator-1; format: cell-based; details: breast cancer cells resistant to Comparator-1
[4] = test system: ovarian cancer cells; assay: Growth of ovarian cancer cell lines; format: cell-based
[5] = Neutropenia, FIG. 2; format: cell-based; details: ovarian cancer cell line; compared to Comparator 1

myelosuppression [2]: less myelosuppression
neutropenia [2]: less neutropenia
neutropenia (FIG. 2) [5]: reduced neutropenia
Structure (SMILES): CN1CCN(c2ccc(Nc3ncc4cc(C#N)c(=O)n(C5CCCC5)c4n3)cc2)CC1 [Compound 1, 8-cyclopentyl-2-((4-(4-methylpiperazin-1-yl)phenyl)amino)-7-oxo-7,8-dihydropyrido[2,3-d]pyrimidine-6-carbonitrile]
growth of cancer cell lines [1]: inhibited growth
growth of cancer cell lines [3]: inhibited growth
inhibition of ovarian cancer cell line growth (FIG. 3) ([4]; compared to Comparator 1): higher inhibition
growth of cancer cell lines ([4]; ovarian cancer cells resistant to Comparator-1): inhibited growth
